Reference: PubChem BioAssay AID1996
Values after ≈ are worked out from the molar mass of the structure shown.

conditions: buffer; pH 7.4; 200.0 µM

Row | solubility kinetic [µg/mL] | SMILES
1 | > 37.2 | C=CC[N+]1(CC=C)CCOCC1.[Br-]
2 | 24.1 | Nc1ccc(C(=O)[O-])cc1.[K+]
3 | > 49.9 | O=C(O)CSCc1nc2scc(-c3ccccc3)c2c(=O)[nH]1
4 | > 58.7 | CC(=O)Nc1ccc(S(=O)(=O)NCC(=O)Nc2ccc3c(c2)OCO3)cc1
5 | > 46.6 | O=C(CC(=O)NCCc1ccccc1)NCCc1ccccc1
6 | 36.8 (≈ 130 µM) | COc1ccccc1NC(=O)c1sc(Cl)nc1C
7 | 31.3 (≈ 133 µM) | Cc1ccccc1OCCCN1CCOCC1
8 | 2.1 (≈ 6.05 µM) | O=C(Cn1c(=O)oc2ccccc21)Nc1ccc(Br)cc1
9 | > 42.6 | O=C(Nc1ccccc1N1CCCC1)c1cccc(F)c1
10 | > 53.8 | COc1ccc(CC(=O)NC(CC(=O)O)c2cccc([N+](=O)[O-])c2)cc1 (centres undefined)
11 | > 42.3 | Cc1ccc[n+](CC(=O)c2ccc(Cl)cc2)c1.[Cl-]
12 | < 0.6 | O=C(NCCC1=CCCCC1)c1cc2ccccc2oc1=O
13 | > 49.6 | O=C(CNS(=O)(=O)c1ccccc1)N1CCc2ccccc2C1
14 | 37.5 (≈ 122 µM) | O=C(c1cccc(C(F)(F)F)c1)N1CCOc2ccccc21
15 | 40.9 (≈ 136 µM) | O=C(Nc1cc([N+](=O)[O-])ccc1N1CCCC1)c1ccco1
16 | > 46.8 | CC(=O)C1=C(O)C(=O)N(c2ccccn2)C1c1cccc(F)c1 (centres undefined)
17 | 29.6 (≈ 110 µM) | Cc1ccc(NC(=O)C(=O)NCc2ccncc2)cc1
18 | 2.2 (≈ 4.55 µM) | O=C(Nc1cc(S(=O)(=O)N2CCOCC2)ccc1N1CCOCC1)c1c(F)cccc1Cl
19 | > 48.8 | CCCS(=O)(=O)N1CCCC(C(=O)c2ccccc2OC)C1 (centres undefined)
20 | > 49.3 | CCC(=O)Nc1ccc2c(c1)nc(CCN1CCC(C)CC1)n2C
21 | > 36.8 | O=C(O)c1ccc(SCc2ccccc2)nc1
22 | 12.2 (≈ 36.4 µM) | OC(CN1CCN(c2cccc(Cl)c2)CC1)c1ccc(F)cc1 (centres undefined)
23 | > 38.9 | O=c1[nH]c(CSc2ncn[nH]2)nc2ccccc12
24 | 2.5 (≈ 8.7 µM) | Cc1ccc(NC(=O)CCOc2ccccc2C)cc1F

Row | solubility kinetic [µg/mL] | SMILES
25 | > 44.5 | COC(=O)[C@H](CC(C)C)NC(=O)NCCC1=CCCCC1
26 | < 0.2 | COc1ccc(Nc2nc3cc(C)ccc3cc2C#N)cc1
27 | > 41.8 | Clc1nc(N2CCOCC2)ncc1Br
28 | 1.1 (≈ 3.66 µM) | Cc1ccc(Nc2c(-c3ccccc3)nc3cnccn23)cc1
29 | 1.6 (≈ 6.17 µM) | O=C(/C=C/c1ccc([N+](=O)[O-])cc1)c1cccs1
30 | > 48 | COc1ccc(CNC(=O)Cn2ccc([N+](=O)[O-])n2)cc1OC
31 | > 65.5 | CCOC(=O)C1CCN(C(=O)/C=C/c2ccc(S(=O)(=O)N3CCOCC3)cc2)CC1
32 | > 28.4 | COc1ccc2c(c1)CC(=O)NC=C2
33 | < 0.6 | O=C(Nc1ccc2ccccc2c1)c1ccccc1F
34 | > 50.6 | O=C(CN1CCN(Cc2ccccc2)CC1)N/N=C/c1cccnc1
35 | 3.4 (≈ 12.3 µM) | Cc1ccc(OCC(=O)NC2CCCCCC2)cc1C
36 | 5.5 (≈ 20.1 µM) | O=C(Nc1ccon1)c1ccc(Br)s1
37 | < 0.3 | Cc1cccc(Nc2c([N+](=O)[O-])c(=O)oc3ccccc23)c1
38 | 4.8 (≈ 16.1 µM) | Cc1cc(/C=C2\NC(=S)NC2=O)c(C)n1-c1cccnc1
39 | > 64.9 | COc1cccc(CN(C)C(=O)c2cc(S(=O)(=O)N3CCCC3)ccc2C)c1OC
40 | > 46.6 | CCc1cccc(NC(=O)C2CCCN(c3cnccn3)C2)c1 (centres undefined)
41 | > 49.9 | CCNC(=O)C1CCCN1S(=O)(=O)c1ccc2ccccc2c1 (centres undefined)
42 | > 46.7 | COc1cccc(C2=NOC(C(=O)NCc3cccnc3)C2)c1 (centres undefined)
43 | 37.4 (≈ 125 µM) | COc1ccc(Br)cc1CN1CCCCCC1
44 | 9.4 (≈ 30.3 µM) | CC(=O)c1cn(CC(=O)Nc2ccccc2F)c2ccccc12
45 | 34.9 (≈ 145 µM) | CNC(=O)NC(=O)C(C)Oc1ccccc1F (centres undefined)
46 | 20.7 (≈ 97.5 µM) | Cc1ccccc1NC(=O)c1cccnc1
47 | 35.1 (≈ 146 µM) | O=C(CN1CCCC1)Nc1cc(F)ccc1F
48 | 4.4 (≈ 13.9 µM) | COc1ccccc1NC(=O)COC(=O)/C=C/c1cccs1

Row | SMILES | solubility kinetic [µg/mL]
49 | CCCCn1c(=O)c(C(=O)Nc2ccc(C)cn2)c(O)c2ccccc21 | < 0.3
